Data from ChEMBL document CHEMBL1133330, “N-benzylpyroglutamyl-L-phenylalanine derivatives as VCAM/VLA-4 antagonists” (Bioorg Med Chem Lett, 2000).
pIC50: −log10 of the molar value.

What was measured:
Integrin alpha-4/beta-1 [1] = biological target: T1, Integrin alpha-4/beta-1 (Homo sapiens, UniProt P05556+P13612); test: Antagonistic activity against VLA-4 (derived from ramos cells) binding to recombinant human VCAM by ELISA assay; format: cell-based
Integrin alpha-4/beta-1 [2] = biological target: T1, Integrin alpha-4/beta-1; test: Antagonistic activity against VLA-4 binding to recombinant human VCAM by ramos cell assay; format: cell-based

T1 sequence (P05556 whole entry): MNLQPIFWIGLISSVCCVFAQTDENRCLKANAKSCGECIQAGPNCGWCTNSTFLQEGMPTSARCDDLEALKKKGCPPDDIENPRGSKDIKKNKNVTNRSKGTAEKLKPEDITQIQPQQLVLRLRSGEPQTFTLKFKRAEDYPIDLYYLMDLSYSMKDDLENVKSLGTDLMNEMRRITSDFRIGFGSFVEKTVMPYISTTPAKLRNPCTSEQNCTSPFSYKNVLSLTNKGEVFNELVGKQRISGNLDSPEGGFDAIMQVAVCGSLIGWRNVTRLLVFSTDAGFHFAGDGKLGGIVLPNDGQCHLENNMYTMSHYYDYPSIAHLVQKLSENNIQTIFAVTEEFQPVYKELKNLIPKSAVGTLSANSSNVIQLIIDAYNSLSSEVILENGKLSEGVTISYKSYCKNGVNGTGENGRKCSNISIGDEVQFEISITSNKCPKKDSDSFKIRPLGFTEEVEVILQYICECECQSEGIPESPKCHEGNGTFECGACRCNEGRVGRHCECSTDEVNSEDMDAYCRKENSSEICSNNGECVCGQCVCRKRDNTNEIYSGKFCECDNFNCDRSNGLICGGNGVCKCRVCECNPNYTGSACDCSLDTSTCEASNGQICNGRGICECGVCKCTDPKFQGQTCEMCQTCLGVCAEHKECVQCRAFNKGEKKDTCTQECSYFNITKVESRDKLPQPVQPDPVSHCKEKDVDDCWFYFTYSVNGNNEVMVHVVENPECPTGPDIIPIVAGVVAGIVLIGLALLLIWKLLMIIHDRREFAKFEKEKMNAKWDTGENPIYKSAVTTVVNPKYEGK
T1 sequence (P13612 whole entry): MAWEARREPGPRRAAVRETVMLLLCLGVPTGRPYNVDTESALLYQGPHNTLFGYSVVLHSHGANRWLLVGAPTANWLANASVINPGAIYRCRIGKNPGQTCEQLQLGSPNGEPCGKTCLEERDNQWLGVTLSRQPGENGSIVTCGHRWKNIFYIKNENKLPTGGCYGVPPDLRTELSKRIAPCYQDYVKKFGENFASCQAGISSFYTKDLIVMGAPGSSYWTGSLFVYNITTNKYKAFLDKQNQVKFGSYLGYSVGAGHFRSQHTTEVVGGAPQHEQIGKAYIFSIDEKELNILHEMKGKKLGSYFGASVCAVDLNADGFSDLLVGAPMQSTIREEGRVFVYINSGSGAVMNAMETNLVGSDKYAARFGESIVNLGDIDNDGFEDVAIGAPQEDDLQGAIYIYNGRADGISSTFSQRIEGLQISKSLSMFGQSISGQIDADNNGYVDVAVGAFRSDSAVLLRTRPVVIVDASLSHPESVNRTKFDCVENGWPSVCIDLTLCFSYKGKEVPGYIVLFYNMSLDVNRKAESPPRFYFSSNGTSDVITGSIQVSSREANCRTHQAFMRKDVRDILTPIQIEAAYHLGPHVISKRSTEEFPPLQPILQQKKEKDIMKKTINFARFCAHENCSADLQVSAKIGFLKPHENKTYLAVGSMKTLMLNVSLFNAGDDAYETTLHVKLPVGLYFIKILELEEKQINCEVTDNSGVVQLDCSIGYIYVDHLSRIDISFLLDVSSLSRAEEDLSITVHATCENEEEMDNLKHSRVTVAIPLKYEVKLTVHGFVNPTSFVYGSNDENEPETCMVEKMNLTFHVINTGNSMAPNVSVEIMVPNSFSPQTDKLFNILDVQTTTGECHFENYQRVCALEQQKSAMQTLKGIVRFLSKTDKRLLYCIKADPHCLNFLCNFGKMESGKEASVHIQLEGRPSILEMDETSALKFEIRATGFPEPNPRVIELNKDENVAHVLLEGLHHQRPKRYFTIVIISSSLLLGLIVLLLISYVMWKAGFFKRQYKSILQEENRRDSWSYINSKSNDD

Row | SMILES | pIC50 (Integrin alpha-4/beta-1 [1]) | pIC50 (Integrin alpha-4/beta-1 [2])
1 | COc1ccc([N+](=O)[O-])cc1C(=O)Nc1ccc(C[C@H](NC(=O)C2CCC(=O)N2Cc2ccccc2)C(=O)O)cc1 (stereo partly drawn) | 9.09 | 7.55
2 | CC(=O)N[C@@H](Cc1ccc(O)cc1)C(=O)NCc1ccc(C[C@H](NC(=O)[C@@H]2CCC(=O)N2Cc2ccccc2)C(=O)O)cc1 | 7.70 | –
3 | COc1ccc(-c2cccnc2C(=O)Nc2ccc(C[C@H](NC(=O)C3CCC(=O)N3Cc3ccccc3)C(=O)O)cc2)cc1 (stereo partly drawn) | 9.06 | 7.54
4 | COc1ccc(C[C@H](NC(=O)[C@@H]2CCC(=O)N2Cc2ccccc2)C(=O)O)cc1 | 6.80 | –
5 | O=C(Nc1ccc(C[C@H](NC(=O)C2CCC(=O)N2Cc2ccccc2)C(=O)O)cc1)c1ccc(Cl)cc1[N+](=O)[O-] (stereo partly drawn) | 9.43 | 8.15
6 | O=C(O)[C@H](Cc1ccc([N+](=O)[O-])cc1)NC(=O)[C@@H]1CCC(=O)N1Cc1ccccc1 | 6.25 | –
7 | [N-]=[N+]=NCc1ccc(C[C@H](NC(=O)[C@@H]2CCC(=O)N2Cc2ccccc2)C(=O)O)cc1 | 7.13 | –
8 | O=C(O)[C@H](Cc1ccc2ccccc2c1)NC(=O)[C@@H]1CCC(=O)N1Cc1ccccc1 | 7.23 | –
9 | O=C(Nc1ccc(C[C@H](NC(=O)[C@@H]2CCC(=O)N2Cc2ccccc2)C(=O)O)cc1)c1ccc([N+](=O)[O-])cc1 | 8.66 | 6.25
10 | O=C(O)[C@H](Cc1ccccc1)NC(=O)[C@@H]1CCC(=O)N1Cc1ccccc1 | 6.34 | –
11 | O=C(O)[C@H](Cc1ccc(COc2ccc([N+](=O)[O-])cc2)cc1)NC(=O)[C@@H]1CCC(=O)N1Cc1ccccc1 | 7.49 | –
12 | O=C(Nc1ccc(C[C@H](NC(=O)C2CCC(=O)N2Cc2ccccc2)C(=O)O)cc1)c1cc(F)c(F)cc1F (stereo partly drawn) | 8.80 | 6.90
13 | O=C(O)[C@H](Cc1ccc(C#Cc2ccccc2)cc1)NC(=O)[C@@H]1CCC(=O)N1Cc1ccccc1 | 7.28 | –
14 | N#Cc1ccc(C[C@H](NC(=O)[C@@H]2CCC(=O)N2Cc2ccccc2)C(=O)O)cc1 | 6.00 | –
15 | O=C(O)[C@H](Cc1cccc2ccccc12)NC(=O)[C@@H]1CCC(=O)N1Cc1ccccc1 | 6.64 | –
16 | O=C(Nc1ccc(C[C@H](NC(=O)C2CCC(=O)N2Cc2ccccc2)C(=O)O)cc1)c1ccc(F)cc1C(F)(F)F (stereo partly drawn) | 9.12 | 7.55
17 | O=C(Nc1ccc(C[C@H](NC(=O)C2CCC(=O)N2Cc2ccccc2)C(=O)O)cc1)c1ccccn1 (stereo partly drawn) | 8.44 | 6.59
18 | O=C(O)[C@H](Cc1ccc(NS(=O)(=O)c2cccc(C(F)(F)F)c2)cc1)NC(=O)[C@@H]1CCC(=O)N1Cc1ccccc1 | 7.70 | 4.59
19 | CC(=O)N[C@@H](Cc1ccc(O)cc1)C(=O)Nc1ccc(C[C@H](NC(=O)[C@@H]2CCC(=O)N2Cc2ccccc2)C(=O)O)cc1 | 8.09 | 5.68
20 | O=C(O)[C@H](Cc1ccc(/C=C/c2ccc([N+](=O)[O-])cc2)cc1)NC(=O)[C@@H]1CCC(=O)N1Cc1ccccc1 | 7.05 | –

Row | SMILES | pIC50 (Integrin alpha-4/beta-1 [1]) | pIC50 (Integrin alpha-4/beta-1 [2])
21 | Cc1ccc([N+](=O)[O-])c(C(=O)Nc2ccc(C[C@H](NC(=O)C3CCC(=O)N3Cc3ccccc3)C(=O)O)cc2)c1 (stereo partly drawn) | 9.13 | 7.11
22 | O=C(Nc1ccc(C[C@H](NC(=O)C2CCC(=O)N2Cc2ccccc2)C(=O)O)cc1)c1cccnc1O (stereo partly drawn) | 8.40 | 5.73
23 | O=C(Nc1ccc(C[C@H](NC(=O)C2CCC(=O)N2Cc2ccccc2)C(=O)O)cc1)c1c(Cl)cccc1Cl (stereo partly drawn) | 9.43 | 7.92
24 | O=C(Nc1ccc(C[C@H](NC(=O)C2CCC(=O)N2Cc2ccccc2)C(=O)O)cc1)c1cc(C(F)(F)F)ccc1C(F)(F)F (stereo partly drawn) | 8.96 | 7.27
25 | CC1CCC(C[C@H](NC(=O)[C@@H]2CCC(=O)N2Cc2ccccc2)C(=O)O)CC1 (stereo partly drawn) | 4.37 | –
26 | N#Cc1cccc(C(=O)Nc2ccc(C[C@H](NC(=O)C3CCC(=O)N3Cc3ccccc3)C(=O)O)cc2)c1 (stereo partly drawn) | 8.34 | 6.59
27 | Cc1ccc(C(=O)Nc2ccc(C[C@H](NC(=O)C3CCC(=O)N3Cc3ccccc3)C(=O)O)cc2)c(Cl)n1 (stereo partly drawn) | 8.62 | 7.48
28 | Cc1ccc([N+](=O)[O-])cc1C(=O)Nc1ccc(C[C@H](NC(=O)C2CCC(=O)N2Cc2ccccc2)C(=O)O)cc1 (stereo partly drawn) | 9.59 | 7.96
29 | COc1ccc(C(=O)Nc2ccc(C[C@H](NC(=O)C3CCC(=O)N3Cc3ccccc3)C(=O)O)cc2)c(OC)n1 (stereo partly drawn) | 8.62 | 6.99
30 | O=C(Nc1ccc(C[C@H](NC(=O)[C@@H]2CCC(=O)N2Cc2ccccc2)C(=O)O)cc1)c1ccccc1 | 8.20 | 6.51
31 | O=C(O)[C@H](Cc1ccc(OCc2ccc([N+](=O)[O-])cc2)cc1)NC(=O)[C@@H]1CCC(=O)N1Cc1ccccc1 | 7.74 | –
32 | O=C(O)[C@H](Cc1ccc(NS(=O)(=O)c2ccc([N+](=O)[O-])cc2)cc1)NC(=O)[C@@H]1CCC(=O)N1Cc1ccccc1 | 7.77 | 4.80
33 | O=C(Nc1ccc(C[C@H](NC(=O)C2CCC(=O)N2Cc2ccccc2)C(=O)O)cc1)c1ccccc1[N+](=O)[O-] (stereo partly drawn) | 9.06 | 7.48
34 | O=C(Nc1ccc(C[C@H](NC(=O)C2CCC(=O)N2Cc2ccccc2)C(=O)O)cc1)c1ccnc2ccccc12 (stereo partly drawn) | 8.85 | 7.10
35 | O=C(O)[C@H](Cc1ccc(CCc2ccccc2)cc1)NC(=O)[C@@H]1CCC(=O)N1Cc1ccccc1 | 7.42 | –
36 | O=C(O)[C@H](Cc1ccc2c(c1)OCO2)NC(=O)[C@@H]1CCC(=O)N1Cc1ccccc1 | 6.66 | –
37 | NS(=O)(=O)c1ccc(C(=O)Nc2ccc(C[C@H](NC(=O)C3CCC(=O)N3Cc3ccccc3)C(=O)O)cc2)cc1 (stereo partly drawn) | 8.46 | 5.97
38 | O=C(O)[C@H](Cc1ccc(CO)cc1)NC(=O)[C@@H]1CCC(=O)N1Cc1ccccc1 | 6.82 | –
39 | CC(=O)N[C@H](Cc1ccc(O)cc1)C(=O)Nc1ccc(C[C@H](NC(=O)[C@@H]2CCC(=O)N2Cc2ccccc2)C(=O)O)cc1 | 8.28 | 5.72
40 | O=C(NCc1ccc(C[C@H](NC(=O)[C@@H]2CCC(=O)N2Cc2ccccc2)C(=O)O)cc1)c1cccnc1 | 7.28 | –
